What was measured:
Arg261Gln (R261Q) PAH = Arg261Gln (R261Q) PAH (Homo sapiens (Human), UniProt P00439, R261Q); experiment: Phenylalanine hydroxylase enzyme activity assay in transfected COS7 cells; assay type: cell-based; settings: compound 10 μM (sepiapterin 5 μM), 48 h
Experimental: (§1) 2. Phenylalanine Hydroxylase Enzyme Activity Assay
(§2) This assay was completed in cell culture to analyze the enzyme activity in the presence of compounds. In brief, wild-type or Arg261Gln PAH constructs were transiently expressed in COS7-cells in a 96 well format reflecting the PAH genotype (COS7 cell line has no endogenous PAH). Cells were treated with the compounds at a final concentration of 10 μM and the enzyme activity of PAH was analyzed 48 h after transfection. The effect of the compounds on the residual enzyme activity was determined in comparison to non-treated cells (NCC, only compound solvent final 0.1%). To normalize the cellular background signal non transfected cells (NT control) were treated with compound or solvent equally for 48 h. As a positive control we used sepiapterin, a stable precursor of BH4 (CAS 17094-01-8), stabilized in 100 mM DTT, in a final concentration of 5 μM.
(§3) PAH activities were assayed at 25° C. as previously described (Gersting, S. W., J. Biol. Chem., 2010, 285(40), 30686-30697) with modifications. The standard mixture contained 22.35 mM NaHepes, pH 7.0, […] catalase, 10 μM ferrous ammonium sulphate, and 1 mM L-Phe (L-phenylalanine) final. Assay mixture and cell culture enzyme were pre-incubated for 5 min and the reaction was initiated by the addition of 75 μM BH4 (stabilized in 100 mM dithiothreitol) final, run for 60 min and stopped by acetic acid. The amount of L-tyrosine production was measured and quantified by HPLC, assayed as triplicates.
(§4) The effect of compound on PAH enzyme activity was calculated from triplicates as follows: first the background of the NT cells were subtracted from the transfected cells (treated or NCC) and then the percentage of treated (compound) versus NCC was determined. Enzyme activity greater than 100% represents an increase in the enzyme activity with respect to NCC.

wild-type PAH [1] = biological target: T1, wild-type PAH (Homo sapiens (Human), UniProt P00439); experiment: as above; assay type: cell-based; settings: compound 10 μM (sepiapterin 5 μM), 48 h
Experimental: as §1, §2, §3, §4

wild-type PAH [2] = biological target: T1, wild-type PAH; experiment: Isothermal titration calorimetry; assay type: binding; settings: ITC
Source text: 4. Isothermal Titration Calorimetry
Isothermal titration calorimetry (ITC) is a quantitative physical technique used to determine binding affinities of small molecules to proteins or other larger molecules [Freyer M. W. and Lewis E. A., Methods in Cell Biology, 2008, vol. 4, Chapter 4, pages 79-113]. The measurement detects changes of heat generated or absorbed when molecules interact, generate binding kinetics and thermodynamic profile of the molecular interaction. The following parameters are determined: KD (equilibrium dissociation constant), N (stoichiometry of the interaction (mol ligand/mol complex)), ΔH (enthalpy change), ΔG (Gibbs energy), T (temperature) and ΔS (entropy change).
ITC experiments were performed at 25° C. using a MicroCal PEAQ-ITC microcalorimeter (Malvern). PAH proteins were prepared in a HEPES buffer (HEPES 20 mM Hepes, 0.2M NaCl, 1 mM DTT, pH 7.0) containing 5% DMSO, in order to match the final DMSO concentration of the compounds dilutions. The protein concentration used (30 μM) was determined using ultraviolet (UV) absorbance at 280 nm. The compounds ([…]) were prepared using the exact same buffer. Twelve injections of 3 μL of compound/ligand were titrated into the sample cell (containing the protein) over 31 min with a stirring speed of 750 rpm. Data was baseline adjusted by subtracting the background obtained from equivalent injections of compound into the buffer solution. The titration curves were analyzed using MicroCal PEAQ-ITC analytics software (version 1.1.0.1262, Malvern Instruments Ltd.) using a model that assumes a set of identical binding sites where the total heat of the solution is calculated as:
[formula] where n is the number of binding sites, Mt is the total protein concentration in the cell, ΔH is the molar heat of ligand binding, Xt is the total concentration of ligand, and K the binding constant (K=1/KD). The heat released per injection (i), ΔQ(i), is calculated following the equation below, which compensates for the volume that is added in each injection (ΔVi). V0 is the initial volume in the cell.
The parameters, n, K, and ΔH are determined using non-linear square fitting using the Levenberg-Marquardt algorithm.

T1 sequence (P00439 whole entry): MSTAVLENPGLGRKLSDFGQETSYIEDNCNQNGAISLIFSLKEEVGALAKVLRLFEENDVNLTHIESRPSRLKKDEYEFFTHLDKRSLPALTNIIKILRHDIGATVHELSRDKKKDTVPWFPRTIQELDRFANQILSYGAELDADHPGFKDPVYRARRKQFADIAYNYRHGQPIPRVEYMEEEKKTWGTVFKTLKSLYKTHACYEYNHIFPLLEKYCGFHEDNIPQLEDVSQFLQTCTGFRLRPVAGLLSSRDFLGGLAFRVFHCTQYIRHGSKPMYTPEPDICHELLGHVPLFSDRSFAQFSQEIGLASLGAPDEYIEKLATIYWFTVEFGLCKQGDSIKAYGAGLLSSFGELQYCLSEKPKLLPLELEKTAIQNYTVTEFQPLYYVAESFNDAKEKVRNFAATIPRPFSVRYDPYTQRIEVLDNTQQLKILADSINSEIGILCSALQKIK
Sequence of Arg261Gln (R261Q) PAH (P00439 whole entry R261Q): as the sequence (P00439 whole entry) above, with R261Q counted along it

Nc1nc(N)c2nc(-c3ccccc3)c(N)nc2n1 [Triamterene, 2,4,7-triamino-6-phenylpteridine]
PAH enzyme activity (L-Tyrosine formation) R261Q PAH Mean (Arg261Gln (R261Q) PAH): 161.48 % NCC | PAH enzyme activity (L-Tyrosine formation) WT PAH Mean (wild-type PAH [1]): 118.98 % NCC | Kd (wild-type PAH [2]; 25° C., WT PAH): 3.03 µM | N (stoichiometry) (wild-type PAH [2]; 25° C., WT PAH): 0.726 ± 0.00 sites | ΔG (wild-type PAH [2]; 25° C., WT PAH): -31.5 kJ/mol | ΔH (wild-type PAH [2]; 25° C., WT PAH): -23.2 ± 0.7 kJ/mol | −TΔS (wild-type PAH [2]; 25° C., WT PAH): -8.32 kJ/mol | Kd (in words) (wild-type PAH [2]; recombinant PAH): low micromolar range

Reference: patent US12257253B2, “Triamterene or nolatrexed for use in the treatment of phenylketonuria” (SOM INNOVATION BIOTECH, S.A., priority 2019, dated 2025)
